# ChEMBL document CHEMBL2074376, “Differential regulation of mdr genes in response to 2-acetylaminofluorene treatment in cultured rat and human hepatocytes” (Carcinogenesis, 1996)
# Columns and labels:
# [1] = biological target: ATP-dependent translocase ABCB1 (Homo sapiens, UniProt P08183); assay: (§1) TP_TRANSPORTER: Northern blot from primary hepatocytes; type: functional, cell-based, Hepatocyte
# [2] = biological target: ATP-dependent translocase ABCB1 (Rattus norvegicus, UniProt P43245); assay: as §1; type: functional, cell-based, Hepatocyte
# Chain of ATP-dependent translocase ABCB1 (Rattus norvegicus, UniProt P43245) (P43245 whole entry): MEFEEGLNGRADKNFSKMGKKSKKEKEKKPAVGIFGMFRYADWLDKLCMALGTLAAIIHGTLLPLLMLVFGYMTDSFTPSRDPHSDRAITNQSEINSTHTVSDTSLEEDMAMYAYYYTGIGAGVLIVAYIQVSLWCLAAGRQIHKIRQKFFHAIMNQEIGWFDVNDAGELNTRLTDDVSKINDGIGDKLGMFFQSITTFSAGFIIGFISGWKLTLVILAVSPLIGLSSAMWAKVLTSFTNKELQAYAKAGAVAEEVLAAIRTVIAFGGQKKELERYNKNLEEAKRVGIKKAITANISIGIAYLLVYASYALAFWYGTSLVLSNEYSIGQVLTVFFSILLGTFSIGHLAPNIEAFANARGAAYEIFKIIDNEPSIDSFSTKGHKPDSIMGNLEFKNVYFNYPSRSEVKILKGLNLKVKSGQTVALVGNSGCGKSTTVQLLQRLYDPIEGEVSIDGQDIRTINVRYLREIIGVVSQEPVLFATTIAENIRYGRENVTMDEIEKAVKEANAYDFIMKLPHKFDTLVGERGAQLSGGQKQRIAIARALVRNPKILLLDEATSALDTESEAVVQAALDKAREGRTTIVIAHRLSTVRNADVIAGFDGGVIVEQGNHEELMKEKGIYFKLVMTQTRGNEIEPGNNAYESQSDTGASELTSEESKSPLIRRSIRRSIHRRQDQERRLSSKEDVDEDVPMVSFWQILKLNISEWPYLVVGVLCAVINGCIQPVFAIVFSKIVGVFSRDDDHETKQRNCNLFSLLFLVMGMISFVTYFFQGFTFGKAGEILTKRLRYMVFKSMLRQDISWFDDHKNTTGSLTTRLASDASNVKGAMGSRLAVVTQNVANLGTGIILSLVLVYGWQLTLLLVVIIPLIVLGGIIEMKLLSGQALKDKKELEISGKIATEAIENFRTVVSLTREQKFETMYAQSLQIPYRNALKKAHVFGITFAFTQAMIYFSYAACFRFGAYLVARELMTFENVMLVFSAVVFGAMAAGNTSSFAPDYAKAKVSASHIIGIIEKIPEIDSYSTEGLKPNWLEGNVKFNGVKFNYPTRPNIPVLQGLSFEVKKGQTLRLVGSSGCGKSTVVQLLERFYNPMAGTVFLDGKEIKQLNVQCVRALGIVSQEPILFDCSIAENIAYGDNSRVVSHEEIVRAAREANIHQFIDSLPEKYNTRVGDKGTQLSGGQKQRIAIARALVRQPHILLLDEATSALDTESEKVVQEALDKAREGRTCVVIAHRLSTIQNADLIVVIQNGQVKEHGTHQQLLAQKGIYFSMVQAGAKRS
# Chain of ATP-dependent translocase ABCB1 (Homo sapiens, UniProt P08183) (P08183 whole entry): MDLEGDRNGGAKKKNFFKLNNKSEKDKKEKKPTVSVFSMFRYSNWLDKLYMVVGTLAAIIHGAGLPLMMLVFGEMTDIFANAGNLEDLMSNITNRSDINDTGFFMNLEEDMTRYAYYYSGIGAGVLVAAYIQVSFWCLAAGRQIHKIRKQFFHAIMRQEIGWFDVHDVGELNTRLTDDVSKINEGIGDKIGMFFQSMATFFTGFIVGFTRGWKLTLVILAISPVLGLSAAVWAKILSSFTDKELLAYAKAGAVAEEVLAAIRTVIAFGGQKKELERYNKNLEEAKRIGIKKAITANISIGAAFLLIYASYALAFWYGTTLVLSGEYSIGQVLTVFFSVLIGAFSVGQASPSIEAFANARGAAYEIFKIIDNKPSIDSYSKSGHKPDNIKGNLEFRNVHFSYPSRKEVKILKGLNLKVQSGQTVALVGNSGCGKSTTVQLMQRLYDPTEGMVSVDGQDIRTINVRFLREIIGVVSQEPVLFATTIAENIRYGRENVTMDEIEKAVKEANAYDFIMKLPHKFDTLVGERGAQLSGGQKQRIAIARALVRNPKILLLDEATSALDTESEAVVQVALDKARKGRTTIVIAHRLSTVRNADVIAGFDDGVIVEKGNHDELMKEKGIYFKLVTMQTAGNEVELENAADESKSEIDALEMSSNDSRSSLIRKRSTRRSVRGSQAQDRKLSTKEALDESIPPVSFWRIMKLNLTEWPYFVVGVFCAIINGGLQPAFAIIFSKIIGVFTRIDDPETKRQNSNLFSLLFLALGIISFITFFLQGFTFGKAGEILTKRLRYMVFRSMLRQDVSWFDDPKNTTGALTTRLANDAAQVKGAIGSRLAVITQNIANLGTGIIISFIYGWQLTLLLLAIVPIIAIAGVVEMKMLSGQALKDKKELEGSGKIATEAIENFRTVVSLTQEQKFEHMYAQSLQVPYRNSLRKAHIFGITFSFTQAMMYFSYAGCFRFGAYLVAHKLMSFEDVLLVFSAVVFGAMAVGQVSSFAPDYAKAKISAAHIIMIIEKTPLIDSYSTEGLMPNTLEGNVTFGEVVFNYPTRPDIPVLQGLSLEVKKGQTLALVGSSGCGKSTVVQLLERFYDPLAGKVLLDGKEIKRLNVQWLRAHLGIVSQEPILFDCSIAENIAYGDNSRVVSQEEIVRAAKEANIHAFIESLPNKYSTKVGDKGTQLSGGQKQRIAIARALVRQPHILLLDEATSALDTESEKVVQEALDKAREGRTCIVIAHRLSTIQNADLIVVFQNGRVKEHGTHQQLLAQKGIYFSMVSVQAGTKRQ
structure (smiles),measurement,setting,value
CC(=O)Nc1ccc2c(c1)Cc1ccccc1-2 [2-ACETYLAMINOFLUORENE],Activity,[1],is not an inducer [-]
same,Activity,[2],inducer [+]
